According to US10106510B2, “Substituted isoxazoles for treating cancer” (EPIZYME, INC., priority 2014, dated 2018):

Molecular target: SMYD3 (Homo sapiens (Human), UniProt Q9H7B4)
Test: SMYD3 biochemical assay (SMYD3 enzyme assay on MEKK2 protein substrate, scintillation proximity assay)
Conditions: 3H-SAM, SPA, IC50 values are an average of n = 1 to n = 50, read-out: SMYD3 Biochem IC50
Excerpt: S-adenosylmethionine (SAM), S-adenosylhomocysteine (SAH), Tris, Tween20, dimethylsulfoxide (DMSO), bovine skin gelatin (BSG), and Tris(2-carboxyethyl)phosphine hydrochloride solution (TCEP) were purchased from Sigma-Aldrich at the highest level of purity possible. ^3H-SAM was purchase from American Radiolabeled Chemicals with a specific activity of 80 Ci/mmol. 384-well opaque white OptiPlates and SPA beads (Perkin Elmer, catalog # RPNQ0013) were purchased from PerkinElmer.
N-terminally GST-tagged MEKK2 (MAP3K2) protein corresponding to reference sequence AAF63496.3 was purchased from Life Technologies (catalog # PV4010). […] Protein identity was confirmed by MS/MS analysis after proteolytic digestion. The protein sequence used was:
Full-length human SMYD3 isoform 1 (BAB86333) was inserted into a modified pET21b plasmid containing a His6 tag and TEV and SUMO cleavage sites. Because two common variants of SMYD3 exist in the population, site directed mutagenesis was subsequently performed to change amino acid 13 from an asparagine to a lysine, resulting in plasmid pEPZ533.
E. coli (BL21 codonplus RIL strain, Stratagene) were transformed with plasmid pEPZ553 by mixing competent cells and plasmid DNA and incubating on ice for 30minutes followed by heat shock at 42° C. for 1 minute and cooling on ice for 2 minutes. Transformed cells were grown and selected on LB agar with 100 μg/mL ampicillin and 17 μg/mL chloramphenicol at 37° C. overnight. A single clone was used to inoculate 200 mL of LB medium with 100 μg/mL ampicillin and 17 μg/mL chloramphenicol and incubated at 37° C. on an orbital shaker at 180 rpm. Once in log growth, the culture was diluted 1:100 into 2 L of LB medium and grown until OD600 was about 0.3 after which the culture was incubated at 15° C. and 160 rpm. Once OD600 reached about 0.4, IPTG was added to a final concentration of 0.1 mM and the cells were grown overnight at 15° C. and 160 rpm. Cells were harvested by centrifugation at 8000 rpm, for 4 minutes at 4° C. and stored at −80° C. for purification.
The column was washed with Buffer B (Buffer A plus 20 mM imidazole) and His-tagged SMYD3 was eluted with Buffer C (Buffer A plus 300 mM imidazole). The His tag, TEV and SUMO cleavage sites were removed generating native SMYD3 by addition of ULP1 protein at a ratio of 1:200 (ULP1:SMYD3). Imidazole was removed by dialysis overnight in Buffer A. The dialyzed solution was applied to a second Nickel column and the native SMYD3 protein was collected from the column flow-through. The flow-through was dialyzed in Buffer D (25 mM Tris, 5% glycerol, 5 mM β-mercaptoethanol, 50 mM NaCl, pH7.8) and ULP1 was removed using a Q sepharose fast flow column.
General Procedure for SMYD3 Enzyme Assays on MEKK2 Protein Substrate
The assays were all performed in a buffer consisting of 25 mM Tris-Cl pH 8.0, 1 mM TCEP, 0.005% BSG, and 0.005% Tween 20, prepared on the day of use. Compounds in 100% DMSO (1 ul) were spotted into a 384-well white opaque OptiPlate using a Bravo automated liquid handling platform outfitted with a 384-channel head (Agilent Technologies). DMSO (1 ul) was added to Columns 11, 12, 23, 24, rows A-H for the maximum signal control and 1 ul of SAH, a known product and inhibitor of SMYD3, was added to columns 11, 12, 23, 24, rows I-P for the minimum signal control. A cocktail (40 ul) containing the SMYD3 enzyme was added by Multidrop Combi (Thermo-Fisher). The compounds were allowed to incubate with SMYD3 for 30 min at room temperature, then a cocktail (10 ul) containing SAM and MEKK2 was added to initiate the reaction (final volume=51 ul).

Sequence of SMYD3 (Q9H7B4 whole entry): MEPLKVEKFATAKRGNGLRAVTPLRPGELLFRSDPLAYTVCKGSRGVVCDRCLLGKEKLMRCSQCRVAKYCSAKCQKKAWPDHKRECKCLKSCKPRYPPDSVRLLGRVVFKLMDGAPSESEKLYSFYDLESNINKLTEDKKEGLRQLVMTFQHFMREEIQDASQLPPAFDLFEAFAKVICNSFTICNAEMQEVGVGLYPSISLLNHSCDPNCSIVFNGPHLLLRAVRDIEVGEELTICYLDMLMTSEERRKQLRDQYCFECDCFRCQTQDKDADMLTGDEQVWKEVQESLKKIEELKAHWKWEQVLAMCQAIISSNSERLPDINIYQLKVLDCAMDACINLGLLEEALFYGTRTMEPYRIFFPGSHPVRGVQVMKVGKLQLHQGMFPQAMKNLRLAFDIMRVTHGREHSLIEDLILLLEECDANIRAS

IC50 [µM]	Compound
1.2	NCCC(=O)N(CCCO)[C@H]1CC[C@H](NC(=O)c2cc(C3CC3)on2)CC1 [compound 38, N-((1r,4r)-4-(3-amino-N-(3-hydroxypropyl)propanamido)cyclohexyl)-5-cyclopropylisoxazole-3-carboxamide]
9.69	COCCN(C(=O)c1cc(C2CC2)on1)[C@H]1CC[C@H](NC(=O)C[C@@H](C)N)CC1 [compound 40, N-((1R,4r)-4-((R)-3-aminobutanamido)cyclohexyl)-5-cyclopropyl-N-(2-methoxyethyl)isoxazole-3-carboxamide]
5.71	C[C@@H](N)CC(=O)N[C@H]1CC[C@H](N(CCc2ccccc2)C(=O)c2cc(C3CC3)on2)CC1 [compound 41, N-((1R,4r)-4-((R)-3-aminobutanamido)cyclohexyl)-5-cyclopropyl-N-phenethylisoxazole-3-carboxamide]
10.8	NCCC(=O)N[C@H]1CC[C@H](N(CCc2ccccc2)C(=O)c2cc(C3CC3)on2)CC1 [compound 42, N-((1r,4r)-4-(3-aminopropanamido)cyclohexyl)-5-cyclopropyl-N-phenethylisoxazole-3-carboxamide]
4.49	CC(C)CN(C(=O)c1cc(C2CC2)on1)[C@H]1CC[C@H](NC(=O)CCN)CC1 [compound 43, N-((1r,4r)-4-(3-aminopropanamido)cyclohcxyl)-5-cyclopropyl-N-isobutylisoxazole-3-carboxamide]
16.4	COCCN(C(=O)c1cc(C2CC2)on1)[C@H]1CC[C@H](NC(=O)CCN)CC1 [compound 44, N-((1r,4r)-4-(3-aminopropanamido)cyclohexyl)-5-cyclopropyl-N-(2-methoxyethyl)isoxazole-3-carboxamide]
8.22	C[C@@H](N)CC(=O)N[C@H]1CC[C@H](N(Cc2ccccc2)C(=O)c2cc(C3CC3)on2)CC1 [compound 45, N-((1R,4r)-4-((R)-3-aminobutanamido)cyclohexyl)-N-benzyl-5-cyclopropylisoxazole-3-carboxamide]
4.34	NCCC(=O)N[C@H]1CC[C@H](N(Cc2ccccc2)C(=O)c2cc(C3CC3)on2)CC1 [compound 46, N-((1r,4r)-4-(3-aminopropanamido)cyclohexyl)-N-benzyl-5-cyclopropylisoxazole-3-carboxamide]
3.12	CC(C)CN(C(=O)c1cc(C2CC2)on1)[C@H]1CC[C@H](NC(=O)C[C@@H](C)N)CC1 [compound 47, N-((1R,4r)-4-((R)-3-aminobutanamido)cyclohexyl)-5-cyclopropyl-N-isobutylisoxazole-3-carboxamide]
3.8	CC(C)CN(C(=O)c1cc(C2CC2)on1)[C@H]1CC[C@H](NC(=O)C[C@H](C)N)CC1 [compound 48, N-((1S,4r)-4-((S)-3-aminobutanamido)cyclohexyl)-5-cyclopropyl-N-isobutylisoxazole-3-carboxamide]
19	COCCN(C(=O)c1cc(C2CC2)on1)[C@H]1CC[C@H](NC(=O)C[C@H](C)N)CC1 [compound 49, N-((1S,4r)-4-((S)-3-aminobutanamido)cyclohexyl)-5-cyclopropyl-N-(2-methoxyethyl)isoxazole-3-carboxamide]
14.5	C[C@@H](N)CC(=O)N[C@H]1CC[C@H](N(CCO)C(=O)c2cc(C3CC3)on2)CC1 [compound 50, N-((1R,4r)-4-((R)-3-aminobutanamido)cyclohexyl)-5-cyclopropyl-N-(2-hydroxyethyl)isoxazole-3-carboxamide]
13.8	C[C@H](N)CC(=O)N[C@H]1CC[C@H](N(CCO)C(=O)c2cc(C3CC3)on2)CC1 [compound 51, N-((1S,4r)-4-((S)-3-aminobutanamido)cyclohexyl)-5-cyclopropyl-N-(2-hydroxyethyl)isoxazole-3-carboxamide]
16.8	NCCC(=O)N[C@H]1CC[C@H](N(CCO)C(=O)c2cc(C3CC3)on2)CC1 [compound 52, N-((1r,4r)-4-(3-aminopropanamido)cyclohexyl)-5-cyclopropyl-N-(2-hydroxyethyl)isoxazole-3-carboxamide]
19.7	C[C@H](N)CC(=O)N[C@H]1CC[C@H](N(Cc2ccccc2)C(=O)c2cc(C3CC3)on2)CC1 [compound 53, N-((1S,4r)-4-((S)-3-aminobutanamido)cyclohexyl)-N-benzyl-5-cyclopropylisoxazole-3-carboxamide]
11.6	C[C@H](N)CC(=O)N[C@H]1CC[C@H](N(CCc2ccccc2)C(=O)c2cc(C3CC3)on2)CC1 [compound 54, N-((1S,4r)-4-((S)-3-aminobutanamido)cyclohexyl)-5-cyclopropyl-N-phenethylisoxazole-3-carboxamide]
24.4	C[C@@H](N)CC(=O)N[C@H]1CC[C@@H](N(C)C(=O)c2cc(C3CC3)on2)CC1 [compound 55, N-((1S,4s)-4-((R)-3-aminobutanamido)cyclohexyl)-5-cyclopropyl-N-methylisoxazole-3-carboxamide]
9.28	C[C@@H](N)CC(=O)N[C@H]1CC[C@H](N(C)C(=O)c2cc(C3CC3)on2)CC1 [compound 56, N-((1R,4r)-4-((R)-3-aminobutanamido)cyclohexyl)-5-cyclopropyl-N-methylisoxazole-3-carboxamide]
25.8	C[C@H](N)CC(=O)N[C@H]1CC[C@@H](N(C)C(=O)c2cc(C3CC3)on2)CC1 [compound 57, N-((1R,4s)-4-((S)-3-aminobutanamido)cyclohexyl)-5-cyclopropyl-N-methylisoxazole-3-carboxamide]
6.11	C[C@H](N)CC(=O)N[C@H]1CC[C@H](N(C)C(=O)c2cc(C3CC3)on2)CC1 [compound 58, N-((1S,4r)-4-((S)-3-aminobutanamido)cyclohexyl)-5-cyclopropyl-N-methylisoxazole-3-carboxamide]
36.6	CN(C(=O)c1cc(C2CC2)on1)[C@H]1CC[C@@H](NC(=O)CCN)CC1 [compound 59, N-((1s,4s)-4-(3-aminopropanamido)cyclohexyl)-5-cyclopropyl-N-methylisoxazole-3-carboxamide]
5.29	CN(C(=O)c1cc(C2CC2)on1)[C@H]1CC[C@H](NC(=O)CCN)CC1 [compound 60, N-((1r,4r)-4-(3-aminopropanamido)cyclohexyl)-5-cyclopropyl-N-methylisoxazole-3-carboxamide]
